Experiments:
[1] = system: M5076 Ovary Sarcoma; assay: Murine in vivo system, M5076 Ovary Sarcoma; details: M5076, dose 26 μg/kg
Source text: (§1) Experimental Anti-cancer Activity of Dolastatin 10 in Murine in vivo Systems, T/C (μg/kg)

[2] = system: Human Mammary Xenograft; assay: Human Mammary Xenograft in nude mouse; format: in vivo; details: dose 26 μg/kg
Source text: as §1

[3] = system: LOX Human Melanoma Xenograft; assay: LOX Human Melanoma Xenograft in nude mouse; format: in vivo; details: dose 52 μg/kg
Source text: as §1

[4] = system: P388 Lymphocytic Leukemia; assay: Murine in vivo system, P388 Lymphocytic Leukemia; details: P388, dose 13.0 μg/kg
Source text: as §1

[5] = system: A498 (Renal); details: Renal A498, 48 hours;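 also: NCI protocol, compound given at five doses from 0.01 to 100 µg/ml, percent growth versus untreated controls relative to cell count at time zero, regression on log dose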
Source text: The following measures are used to express drug activity by giving the drug dose which reduces cell growth to a specified percentage of growth:
There is no mathematical difference between ED50 and GI50, which are both calculated using the same formula. The only difference is historical usage.
TGI, (Total Growth Inhibition), is the drug dose needed to yield zero percent growth, i.e., just as many cells at the end of the experiment as were present in the beginning. Whether just as many cells were killed as were produced (steady state), or no growth occurred (total inhibition), cannot be distinguished.
Each drug is tested at five (5) doses: 100-10-1-0.1-0.01 μg/ml. Percent Growths are calculated for each dose. […] The log of the dose is used during the regression computation.
At the start of an experiment, cells from the in vitro cell cultures are inoculated into the appropriate tubes or microtiter plates. One set of control tubes/plates is immediately counted to determine the number of cells at the start of the experiment. This is the "baseline count", or "Tzero reading". At the end of the experiment (48 hours later) a second set of control tubes/plates is analyzed to determine the "Control Growth" value. The growth (or death) of cells relative to the initial quantity of cells is used to define the "Percent of Growth".

[6] = system: OVCAR-3 (Ovarian); assay: NCI human tumor cell line growth inhibition, OVCAR-3; format: cell-based; details: Ovarian OVCAR-3, 48 hours
Method: (§2) The only difference is historical usage.
(§3) Percent Growths are calculated for each dose.
(§4) This is the "baseline count", or "Tzero reading".

[7] = system: PS-388 (Mouse Leukemia); assay: P-388 mouse leukemia cell growth inhibition; format: cell-based; details: Mouse Leukemia PS-388
Method: as §2, §3, §4

[8] = system: KM20L2 (Colon); assay: NCI human tumor cell line growth inhibition, KM20L2; format: cell-based; details: Colon KM20L2, 48 hours
Method: as §2, §3, §4

[9] = system: SK-MEL-5 (Melanoma); assay: NCI human tumor cell line growth inhibition, SK-MEL-5; format: cell-based; details: for GI-50 / LC-50 / TGI: Melanoma SK-MEL-5, 48 hours
Method: as §2, §3, §4

[10] = system: NCI-H460 (Lung-NSC); assay: NCI human tumor cell line growth inhibition, NCI-H460; format: cell-based; details: Lung-NSC NCI-H460, 48 hours
Method: as §2, §3, §4

[11] = system: SF-295 (CNS); assay: NCI human tumor cell line growth inhibition, SF-295; format: cell-based; details: CNS SF-295, 48 hours
Method: as §2, §3, §4

Row | Compound | GI-50 [5] | LC-50 [5] | TGI [5] | GI-50 [6] | LC-50 [6] | TGI [6] | ED-50 [7] | GI-50 [8] | LC-50 [8] | TGI [8] | GI-50 [9] | LC-50 [9] | TGI [9] | GI-50 [10] | LC-50 [10] | TGI [10] | GI-50 [11] | LC-50 [11] | TGI [11] | also measured
1 | CC[C@H](C)[C@@H]([C@@H](CC(=O)N1CCC[C@H]1[C@H](OC)[C@@H](C)C(=O)N[C@@H](Cc1ccccc1)c1nccs1)OC)N(C)C(=O)[C@@H](NC(=O)[C@H](C(C)C)N(C)C)C(C)C [Dolastatin 10] |  |  |  |  |  |  |  |  |  |  |  |  |  |  |  |  |  |  |  | T/C outcome: toxic [1]: toxic; T/C outcome: toxic [2]: Toxic; T/C outcome: toxic [3]: toxic; T/C outcome: toxic [4]: toxic
2 | L-Dolavalyl-L-Valyl-N-Methyl-(S,S,R)-Dolaisoleuinyl-(S,R,R)-Dolaproinyl-L- Methionine N-4-Chlorophenyl Amide [9e] | 0.0000035 µg/mL | > 0.00001 µg/mL | > 0.01 ng/mL | 0.00000045 µg/mL | > 0.00001 µg/mL | 0.0042 ng/mL | 0.000603 µg/mL | 0.00000084 µg/mL | > 0.00001 µg/mL | 0.0051 ng/mL | 0.00000033 µg/mL | > 0.00001 µg/mL | > 0.01 ng/mL | 0.0000022 µg/mL | > 0.00001 µg/mL | 0.0085 ng/mL | 0.0000023 µg/mL | > 0.00001 µg/mL | > 0.01 ng/mL | 
3 | L-Dolavalyl-L-Valyl-N-Methyl-(S,S,R)-Dolaisoleuinyl-(S,R,R)-Dolaproinyl-L- Methionine N-4-Fluorophenyl Amide [9a] | 0.00025 µg/mL | > 0.001 µg/mL | > 1 ng/mL | 0.000049 µg/mL | > 0.001 µg/mL | 0.33 ng/mL | 0.000317 µg/mL | 0.00005 µg/mL | > 0.001 µg/mL | 0.39 ng/mL | 0.000038 µg/mL | > 0.001 µg/mL | 0.57 ng/mL | 0.000089 µg/mL | > 0.001 µg/mL | 0.66 ng/mL | 0.0001 µg/mL | > 0.001 µg/mL | > 1 ng/mL | 
4 | L-Dolavalyl-L-Valyl-N-Methyl-(S,S,R)-Dolaisoleuinyl-(S,R,R)-Dolaproinyl-L- Phenylalanine N-2,5-Dichlorophenyl Amide [9h] | 0.000016 µg/mL | > 0.0001 µg/mL | > 0.1 ng/mL | 0.0000031 µg/mL | > 0.0001 µg/mL | 0.017 ng/mL | 0.0000482 µg/mL | 0.0000042 µg/mL | > 0.0001 µg/mL | 0.037 ng/mL | 0.0000031 µg/mL | > 0.0001 µg/mL | > 0.1 ng/mL | 0.0000029 µg/mL | > 0.0001 µg/mL | 0.012 ng/mL | 0.0000036 µg/mL | > 0.0001 µg/mL | > 0.1 ng/mL | 
5 | L-Dolavalyl-L-Valyl-N-Methyl-(S,S,R)-Dolaisoleuinyl-(S,R,R)-Dolaproinyl-L- Phenylalanine N-2-(6-Chloro)benzothiazole Amide [9k] | 0.000031 µg/mL |  | > 0.1 ng/mL | 0.0000043 µg/mL |  | 0.027 ng/mL | 0.000383 µg/mL | 0.000022 µg/mL |  | 0.072 ng/mL | 0.000003 µg/mL |  | > 0.1 ng/mL | 0.0000044 µg/mL |  | 0.063 ng/mL | 0.000022 µg/mL |  | > 0.1 ng/mL | 
6 | L-Dolavalyl-L-Valyl-N-Methyl-(S,S,R)-Dolaisoleuinyl-(S,R,R)-Dolaproinyl-L- Phenylalanine N-2-(6-Fluoro)benzothiazole Amide [9j] | 0.000016 µg/mL |  | > 0.1 ng/mL | 0.0000031 µg/mL |  | 0.012 ng/mL | 0.000227 µg/mL | 0.0000033 µg/mL |  | 0.013 ng/mL | 0.0000013 µg/mL |  | > 0.1 ng/mL | 0.0000041 µg/mL |  | 0.036 ng/mL | 0.0000044 µg/mL |  | > 0.1 ng/mL | 
7 | L-Dolavalyl-L-Valyl-N-Methyl-(S,S,R)-Dolaisoleuinyl-(S,R,R)-Dolaproinyl-L- Phenylalanine N-3-Chlorophenyl Amide [9d] | 0.00012 µg/mL | > 0.01 µg/mL | > 1 ng/mL | 0.000018 µg/mL | > 0.01 µg/mL | 0.16 ng/mL | 0.00258 µg/mL | 0.000007 µg/mL | > 0.01 µg/mL | 0.19 ng/mL | < 1e-12 µg/mL | > 0.01 µg/mL | 5.1 ng/mL | 0.0000094 µg/mL | > 0.01 µg/mL | 0.11 ng/mL | 0.000041 µg/mL | > 0.01 µg/mL | > 1 ng/mL | human tumor inhibiting activity ([9]; Melanoma SK-MEL-5 cell line, statement in words): unprecedented and extraordinary human tumor inhibiting activity
8 | L-Dolavalyl-L-Valyl-N-Methyl-(S,S,R)-Dolaisoleuinyl-(S,R,R)-Dolaproinyl-L- Phenylalanine N-4-Chlorophenyl Amide [9f] | 0.000007 µg/mL | > 0.0001 µg/mL | > 0.1 ng/mL | 0.0000014 µg/mL | > 0.0001 µg/mL | 0.0056 ng/mL | 0.0000452 µg/mL | 0.0000029 µg/mL | > 0.0001 µg/mL | 0.0084 ng/mL | 0.0000002 µg/mL | > 0.0001 µg/mL | 0.047 ng/mL | 0.0000018 µg/mL | > 0.0001 µg/mL | 0.01 ng/mL | 0.0000025 µg/mL | > 0.0001 µg/mL | > 0.1 ng/mL | 
9 | L-Dolavalyl-L-Valyl-N-Methyl-(S,S,R)-Dolaisoleuinyl-(S,R,R)-Dolaproinyl-L- Proline N-2-Benzothiazole Amide [9n] | 0.000081 µg/mL |  | > 0.1 ng/mL | 0.000027 µg/mL |  | 0.079 ng/mL | 0.00083 µg/mL | 0.000029 µg/mL |  | > 0.1 ng/mL | 0.0000098 µg/mL |  | > 0.1 ng/mL | 0.000031 µg/mL |  | > 0.1 ng/mL | 0.000035 µg/mL |  | > 0.1 ng/mL | 
10 | L-Dolavalyl-L-Valyl-N-Methyl-(S,S,R)-Dolaisoleuinyl-(S,R,R)-Dolaproinyl-L- Proline N-3-Quinoline Amide [9q] | 0.00041 µg/mL | > 0.0001 µg/mL | > 0.1 ng/mL | 0.000086 µg/mL | > 0.0001 µg/mL | > 0.1 ng/mL | 0.000415 µg/mL | 0.00033 µg/mL | > 0.0001 µg/mL | > 0.1 ng/mL | 0.00011 µg/mL | > 0.0001 µg/mL | > 0.1 ng/mL | 0.0003 µg/mL | > 0.0001 µg/mL | > 0.1 ng/mL | 0.00036 µg/mL | > 0.0001 µg/mL | > 0.1 ng/mL | 
11 | L-Dolavalyl-L-Valyl-N-Methyl-(S,S,R)-Dolaisoleuinyl-(S,R,R)-Dolaproinyl-L- Valine N-3-Quinoline Amide [9r] | 0.000051 µg/mL | > 0.0001 µg/mL | > 0.1 ng/mL | 0.000019 µg/mL | > 0.0001 µg/mL | 0.069 ng/mL | 0.0041 µg/mL | 0.000031 µg/mL | > 0.0001 µg/mL | > 0.1 ng/mL | 0.0000057 µg/mL | > 0.0001 µg/mL | > 0.1 ng/mL | 0.000026 µg/mL | > 0.0001 µg/mL | > 0.1 ng/mL | 0.000027 µg/mL | > 0.0001 µg/mL | > 0.1 ng/mL | 

Source: patent US5663149A, “Human cancer inhibitory pentapeptide heterocyclic and halophenyl amides” (priority 1994, dated 1997)
